Assay results taken from patent US20120134985A1, “METHODS FOR MODULATING METABOLIC AND CIRCADIAN RHYTHMS” (The Salk Institute for Biological Studies, priority 2009, published 2012).

Experiments:
[1] = test system: mCRY1; assay: Levels of exogenously expressed Flag-mCRY1 in HeLa cells expressing WT or KD LKB1 (immunoblot); assay type: cell-based, mouse; conditions: HeLa cells with wild type (WT) LKB1; 2 mM AICAR for 2 hours
Excerpt: (A) Sequence alignments showing evolutionary conservation of the regions surrounding S71 of mCRY1 in cryptochrome circadian transcriptional repressors (species names in red font) and blue light photoreceptors (species names in blue font). The highlighted numbers above the sequences indicate amino acid preferences at those positions relative to the target serine for phosphorylation by AMP kinase: red indicates a preference for acidic residues (K/R) and green for hydrophobic residues (L/I/V/F). (B) Top: sequence alignment of the phospho-peptides against which antibodies to mCRY1-pS71 and mACC1-pS79 were raised. Bottom: Both anti-mCRY1-pS71 and anti-ACC1-pS79 antibodies recognize WT but not S71A Flag-mCRY1 immunoprecipitated from AD293 cells. (C) anti-mCRY1-p571 was used to detect phosphorylation of Ser71 in Flag-CRY1 immunoprecipitated from AD293 cells transiently expressing wild type CRY1 (WT) or CRY1S71A (S71A) in the absence or presence of activated alleles of AMPKα1 (CAα1) or AMPKα2 (CAα2). Transiently expressed myc-CAα1 and myc-CAα2 were immunostained with polyclonal rabbit antibodies raised against the myc epitope tags and anti-rabbit AF488 (green). Nuclei were counterstained with DAPI (blue). […] CRY1 was detected by immunoprecipitation and immunoblotting for the Flag epitope in (D-G). […]

[2] = test system: CRY1; assay: Flag-CRY1 degradation/stability in AMPK+/+ and AMPK-/- mouse embryonic fibroblasts (immunoprecipitation, immunoblot, cycloheximide time course); assay type: cell-based
Excerpt: (A) Sequence alignments showing evolutionary conservation of the regions surrounding S71 of mCRY1 in cryptochrome circadian transcriptional repressors (species names in red font) and blue light photoreceptors (species names in blue font). The highlighted numbers above the sequences indicate amino acid preferences at those positions relative to the target serine for phosphorylation by AMP kinase: red indicates a preference for acidic residues (K/R) and green for hydrophobic residues (L/I/V/F). (B) Top: sequence alignment of the phospho-peptides against which antibodies to mCRY1-pS71 and mACC1-pS79 were raised. Bottom: Both anti-mCRY1-pS71 and anti-ACC1-pS79 antibodies recognize WT but not S71A Flag-mCRY1 immunoprecipitated from AD293 cells. (C) anti-mCRY1-p571 was used to detect phosphorylation of Ser71 in Flag-CRY1 immunoprecipitated from AD293 cells transiently expressing wild type CRY1 (WT) or CRY1S71A (S71A) in the absence or presence of activated alleles of AMPKα1 (CAα1) or AMPKα2 (CAα2). Transiently expressed myc-CAα1 and myc-CAα2 were immunostained with polyclonal rabbit antibodies raised against the myc epitope tags and anti-rabbit AF488 (green). Nuclei were counterstained with DAPI (blue). (D) HeLa cells transiently expressing Flag-CRY1 with wild type (WT) or kinase dead (KD) LKB1 were treated with vehicle (−) or 2 mM AICAR (+) for 2 hours. (E) AD293 cells transiently expressing the indicated alleles of Flag-mCRY1 were treated with media containing 25 mM or 0.5 mM glucose. (F) Paired wild type (AMPK+/+) and ampkα1^−/−;ampkα2^−/− (AMPK−/−) mouse embryonic fibroblasts stably expressing Flag-tagged wild type CRY1 (WT) or CRY1S71A/S280A (AA) were treated with vehicle (−) or 2 mM AICAR (+) for 2 hours. (G) MEFs described in (F) were treated with 100 μg/ml cycloheximide (CHX) for the indicated times. CRY1 was detected by immunoprecipitation and immunoblotting for the Flag epitope in (D-G). […]

[3] = test system: reverba and dbp expression; assay: Quantitative PCR of circadian transcripts in serum-stimulated mouse embryonic fibroblasts; assay type: cell-based; conditions: 25 mM glucose supplemented with 1 mM AICAR
Protocol: (A) Unsynchronized paired wild type (AMPK^+/+) or ampkα1^−/−; ampkα2^−/− (AMPK−/−) mouse embryonic fibroblasts were stimulated by 2 hour exposure to 50% horse serum followed by transfer to media containing 25 mM glucose, 0.5 mM glucose or 25 mM glucose supplemented with 1 mM AICAR. Quantitative PCR analysis was performed using cDNA samples collected at the indicated times following stimulation. Data represent the mean of two independent experiments, each analyzed in triplicate. (B) Fibroblasts stably expressing Bmall-luciferase were cultured in media containing the indicated amounts of glucose with or without 2 mM AICAR. Typical results of continuous monitoring of luciferase activity are shown. (C and D) Quantitation of the circadian period (C) and amplitude (D) of Bmall-driven luciferase activity from experiments performed as described in (B). Data in (C) and (D) represent the mean±standard deviation for four samples per condition. […]
FIG. 10A-D show disruption of AMPK alters circadian rhythms in MEFs. […] Quantitative PCR analysis was performed using cDNA samples prepared from lysates collected at the indicated times following stimulation. Data represent the mean±standard deviation of two or three independent experiments each analyzed in triplicate. […]

[4] = test system: Bmall-luciferase; assay: Real time bioluminescence monitoring of Bmall-luciferase circadian rhythms; assay type: cell-based, human; conditions: high glucose medium supplemented with 2 mM AICAR
Protocol: (A) Unsynchronized paired wild type (AMPK^+/+) or ampkα1^−/−; ampkα2^−/− (AMPK−/−) mouse embryonic fibroblasts were stimulated by 2 hour exposure to 50% horse serum followed by transfer to media containing 25 mM glucose, 0.5 mM glucose or 25 mM glucose supplemented with 1 mM AICAR. Quantitative PCR analysis was performed using cDNA samples collected at the indicated times following stimulation. Data represent the mean of two independent experiments, each analyzed in triplicate. (B) Fibroblasts stably expressing Bmall-luciferase were cultured in media containing the indicated amounts of glucose with or without 2 mM AICAR. Typical results of continuous monitoring of luciferase activity are shown. (C and D) Quantitation of the circadian period (C) and amplitude (D) of Bmall-driven luciferase activity from experiments performed as described in (B). Data in (C) and (D) represent the mean±standard deviation for four samples per condition. ANOVA analysis indicated a significant difference between categories. ** P<0.01 vs. samples cultured in 25 mM glucose in Scheffe's post-hoc analysis.
The Bmall promoter is repressed by REVERBa. […]
Real Time Bioluminescence Monitoring—The human osteosarcoma U2OS reporter cell line stably expressing a Bmall promoter driven luciferase has been described. […] Bioluminescence was continuously recorded by a LumiCycle apparatus from Actimetrics, Inc.

[5] = test system: Fas and Por expression in liver; assay: Liver gene expression (quantitative PCR) in wildtype and Cry1-/-;Cry2-/- mice injected with AICAR; assay type: in vivo, mouse
Protocol: Wildtype (WT) or Cry1^−/−;Cry2^−/− (CRY^−/−) mice were injected with either saline (black bars) or 500 mg AICAR per kg of bodyweight (red bars) at 6:00 pm. cDNA was prepared from livers collected four hours later at 10:00 pm and gene expression was analyzed by quantitative PCR using Sybr GreenER chemistry. […] Data represent the mean±s.e.m. for 3-5 mice per condition.
Gene Expression—RNA was extracted from livers or cultured fibroblasts with Trizol or using the Qiagen RNeasy purification system. cDNA was prepared using the SuperscriptII reverse transcriptase (Invitrogen) and analyzed for gene expression using quantitative real-time PCR with either SYBR green (Invitrogen) or TaqMan (Applied Biosystems) chemistry. Primer sequences are available upon request.
Mice—LKB1^fl/fl mice were a gift from Dr. Ronald De Pinho, Cry1^−/−;Cry2^−/− mice were a gift from Dr. Aziz Sancar. Adenovirus expressing Cre recombinase was from the University of Iowa Transgenic Core facility. All animal care and treatments were in accordance with the Salk Institute guidelines for the care and use of animals.
Furthermore, the effect on metabolic physiology of genetic disruption of both Cry1 and Cry2 in mice is examined.

[6] = test system: AMPK; assay: In vitro phosphorylation assay of purified Flag-mCRY1 by purified AMPK; assay type: biochemical; conditions: 300 μM AMP; 30 minutes; 32P-ATP
Protocol: Flag-tagged mCRY1 purified from AD293 cells was incubated for 30 minutes with #^32P-ATP in the absence or presence of AMP kinase and 300 μM AMP as indicated. Phosphorylation of mCRY1 was detected by autoradiography; total mCRY1 levels were determined by immunoblot for the Flag epitope.
In vitro Phosphorylation Assay—Flag-mCRY1 was purified from transfected AD293 cells and combined with ^32P-ATP and purified AMPK (from Upstate Biotechnology) in the presence or absence of 300 uM AMP for 30 minutes at room temperature. The reaction mixture was separated by SDS-PAGE and transferred to nitrocellulose. Following radioactive visualization by phosphoimager, the nitrocellulose was immunoblotted for the Flag tag.

[7] = test system: AMPK; conditions: cited from earlier work
[8] = WT or Cry1-/-;Cry2-/- mice, 500 mg AICAR per kg of bodyweight, livers collected four hours later

NC(=O)c1ncn([C@@H]2O[C@H](CO)[C@@H](O)[C@H]2O)c1N [AICAR, 5-amino-4-imidazolecarboxamide riboside]
levels of exogenously expressed mCRY1 [1]: reduction was enhanced | stability of wild type CRY1 ([2]; 4-hour time course of cycloheximide treatment in the presence of AICAR): reduced stability | effect on WT or AA CRY1 ([2]; AMPK-/- MEFs (absence of functional AMPK), 2 mM AICAR for 2 hours): no effect | degradation of wild type (WT) Flag-CRY1 ([2]; wild type (AMPK+/+) MEFs, 2 mM AICAR for 2 hours): acutely degraded | expression of reverba and dbp ([3]; MEFs lacking AMPK (AMPK-/-)): neither glucose deprivation nor AICAR treatment affected | amplitude of circadian reverba and dbp expression ([3]; wild type fibroblasts): mimicked the effects of glucose deprivation | amplitude of Bmall-luciferase expression [4]: decreased the amplitude | Fas (fatty acid synthase) expression in liver [5, 8]: activated by AICAR regardless of Cry1 and Cry2 genotype | Por (p450 oxidoreductase) expression in liver [5, 8]: AICAR-induced activation requires cryptochromes | gene expression in the livers ([5]; wildtype and cryptochrome-deficient mice injected with AICAR): cryptochromes are required for AICAR-induced activation of a subset of the genes

Nc1ncnc2c1ncn2[C@@H]1O[C@H](COP(=O)(O)O)[C@@H](O)[C@H]1O [AMP]
phosphorylation of mCRY1 by purified AMPK [6]: strongly activated

NC(=O)c1ncn([C@@H]2O[C@H](COP(=O)(O)O)[C@@H](O)[C@H]2O)c1N [ZMP, 5-amino-4-imidazolecarboxamide ribotide]
AMPK activation ([7]; AMP analog formed in the cell from AICAR): has been shown to activate AMPK | specificity as AMPK activator ([7]; also acts as an AMP mimic in the regulation of other enzymes): not a specific AMPK activator
